Data: US8093273B2, “Flavanoids and isoflavanoids for the prevention and treatment of cardiovascular diseases” (Resverlogix Corp., priority 2004, dated 2012)
Where two headings read alike, the source gives them in different places.

Tests used:
hApoA-I transgenic mice = assay: hApoA-I transgenic mice, oral gavage for 14 days; format: in vivo; conditions: for change in vivo at 10 mg/kg / change in vivo at 30 mg/kg: Mus musculus, po, 336 h, relative to pretreatment, read-out: ApoA-I (% change); for change in vivo at 10 mg/kg: 10 mg/kg BID 14 days; for change in vivo at 30 mg/kg: 30 mg/kg BID 14 days
From the text: To test whether the efficacy of compounds of the invention observed in vitro extended to an in vivo model, transgenic mice carrying multiple copies of the human ApoA-I gene (C57BI/6-tgn(apoa1)1 rub, Jackson Laboratory, Bar Harbor, Me.) were exposed to representative compounds of the invention. The exogenous human ApoA-I gene in these mice enables them to express the human ApoA-I protein under the control of this promoter.
Seven to eight week old male mice, transgenic for human ApoA-I were housed five per cage (10″×20″×8″ with aspen chip bedding) with pelleted Rodent chow [Purina 5001] and water available at all times. After an acclimation period of 1 week, animals were individually identified by numbering on tail and weighed. Mice were pre bled via the retro-orbital plexus, and 150 μl of blood was collected in 1.5 ml Eppendorf tube containing 1 μl of heparin and chilled on ice. Plasma was collected after centrifuging the whole blood at 14000 rpm [TOMY high speed micro-refrigerated centrifuge NTX-150] for 10 minutes at 4° C. and frozen at −80° C. Plasma was analyzed for: human ApoA-I by a human ApoA-I enzyme-linked Immunoassay [Direct Sandwich ELISA Calbiochem Cat#178422, Calbiochem Cat#178452, lot #B9076, Calbiochem Cat #178470 conjugated to Horse Radish Peroxidase (Cedarlane Cat#80220)]; total cholesterol [Ponte scientific reagents: # C7509-STD, #L7580-18, # C7510]; and triglyceride [Pointe Scientific Reagents: # 7532-STD, # L7580-18, #7532]. All samples were measured in triplicates and expressed as mg/dl. Mice were grouped based on the above plasma parameters and having an average body weight of 25 gm.
Two days following pre-bleed, mice were dosed by oral gavage daily for 14 days using a 20 gauge, 11/2″ curved disposable feeding needle [Popper & Sons]; when BID, mice were gavaged morning and afternoon (8 am and 5 pm); when SID mice were gavaged in morning (8 am). Compounds were prepared each day in vehicle. Test article(s), a positive control fenofibrate, and vehicle were dosed at volume of 5 mL/kg of body weight as a suspension (0.1 mL/20 g mouse). Fenofibrate was obtained commercially [SIGMA #F 6020]. Mice weights were recorded on day 1, 4, 7, 10, 12, and 15. On day 15, mice were weighed and fasted for 4 hours, sacrificed by inhalation of CO2 and blood was obtained via cardiac puncture (0.7-1.0 ml). Plasma was collected and frozen at −80° C. Samples were assayed for ApoA-I, total cholesterol, triglyceride and HDL-C by HPLC [Polaris 200 with an auto sampler Prostar 410 from Varian on a Superose 6 10/30 column from Amersham]. Samples were sent for NMR analysis [LipoScience] to identify particle size and subclass for lipoproteins. During necropsy, liver, brown fat, and the whole of small and large intestines were collected, cleaned with cold PBS and frozen at −80° C. for further analysis of compound levels. Variation between studies, in ApoA-I changes, was observed. Therefore, a relative comparison between individual(s) in the study groups was used.
4′-hydroxyflavone (10 mg/kg of body weight), 4-(4-oxo-4H-chromen-2-yl)phenyl nicotinate (Example 71) (10 mg/kg of body weight) and fenofibrate (100 mg/kg of body weight) were BID administered to hApoA-I transgenic mice daily for fourteen days by oral gavage in 0.5% Methylcellulose (w/v)/1% Tween 80 (w/v). Plasma was assayed for ApoA-I (FIG. 3A), HDL cholesterol and total cholesterol (FIG. 3B) and percent weight gain (FIG. 3C).
4′-hydroxyflavone (3 mg/kg of body weight), 4′-hydroxyflavone (10 mg/kg of body weight), 4′-hydroxyflavone (30 mg/kg of body weight), 2-(4-Hydroxy-phenyl)-pyrano[2,3-b]pyridin-4-one (10 mg/kg of body weight), and fenofibrate (100 mg/kg of body weight) were BID administered to hApoA-I transgenic mice daily for fourteen days by oral gavage in 0.5% methylcellulose (w/v)/1% Tween 80 (w/v). In this experiment plasma was assayed for ApoA-I. […]

human ApoA-I promoter = assay: ApoA-I promoter induction in Caco-2 intestinal cells (pAI.474-Luc luciferase reporter); format: cell-based; conditions: Caco-2 cells, 15 μM, 48 hours incubation, luciferase activity vs control samples
Description: To examine the effects of compounds of the invention to increase ApoA-I expression, Caco-2 cells, an intestinal cell line derived from human epithelial intestinal cells, were grown under conditions recommended by the ATCC and summarized in United States Patent Application Publication No. 20040033480 (“Wong”), incorporated herein by reference.
Briefly, the promoter region of the gene encoding human ApoA-I was isolated and ligated upstream of the firefly luciferase gene to construct the reporter plasmid pAI.474-Luc. This reporter plasmid and pRSV-β-galactosidase (as a control for transfection efficiency) were co-transfected to Caco-2 cells. The Caco-2 cells were then incubated in a MEM selection media containing 20% fetal calf serum supplemented with G418 (final concentration: 0.5 mg/mL, Gibco) to give established strains that stably express from the reporter gene. The strains were seeded in 6-well culture plates and incubated for 48 hours at 37° C. under 5% carbon dioxide. Cells were starved for 24 hrs in MEM selection media containing 0.5% FBS. Then, a solution of a compound of the invention in DMSO or other appropriate solvent was added to the wells at a final concentration of 0 to 100 μM in MEM selection media containing 0.5% FBS.
After further incubation for 48 hours, the cells were harvested and lysed using Reporter Lysis Buffer (PROMEGA E3971), and 50 μL of luciferase assay reagent (PROMEGA E4550 Luciferase Reporter 1000 assay system) was added to measure luciferase activity with a luminometer (Fluoroskan Ascent FL from Thermo electron Corporation). Luciferase activity was normalized to lysate protein concentrations, measured using Bradford Reagent (BioRad Protein Assay reagent Cat #500-0006). The luciferase activity of cells treated with various concentrations of test compounds was compared to that of solvent control sample (i.e., solvent without any compound of the present invention added) and untreated control sample.

Caco-2 permeability = format: in vitro ADME, human; conditions: human
From the text: The Caco-2 cell drug transport model is widely used for screening compounds in drug discovery to assess intestinal transport and predict absorption rates.

[1] = in vitro Caco-2 intestinal transport model, read-out: % Transported Paap
[2] = Table 6 fourth group, Control 3 1.11
[3] = Table 6 third group, Control 3 (F-101) (6.32)

O=c1cc(-c2ccc(O)cc2)oc2ncccc12 [2-(4-hydroxy-phenyl)-pyrano[2,3-b]pyridin-4-one]
plasma ApoA-I, net % change over vehicle (hApoA-I transgenic mice; Experiment B, 10 mpk BID oral gavage, two weeks): 3.75%

O=c1cc(-c2ccccc2)oc2cc(O)cc(O)c12 [5,7-Dihydroxy-2-phenyl-4H-chromen-4-one, 5,7-Dihydroxy-2-phenyl-chromen-4-one, reference compound]
ApoA-I Promoter Induction (human ApoA-I promoter): increased
Papp (Caco-2 permeability; [1]): 0.122 ×10⁻⁶ cm/s

O=c1cc(-c2ccc(O)cc2)oc2cc(O)cc(O)c12 [5,7-dihydroxy-2-(4-hydroxyphenyl)-4H-chomen-4-one, reference compound]
Papp (Caco-2 permeability; [1]): 1.5 ×10⁻⁶ cm/s

COc1ccc2c(=O)cc(-c3ccc(O)cc3)oc2c1 [7-methoxy-2-(4-hydroxyphenyl)-4H-chromen-4-one, reference compound]
Papp (Caco-2 permeability; [1]): 6.92 ×10⁻⁶ cm/s

O=c1cc(-c2cc(F)c(O)c(F)c2)oc2ccccc12 [Example 6, 2-(3,5-difluoro-4-hydroxyphenyl)chromen-4-one]
Papp (Caco-2 permeability; Caco-2): 0.531 ×10⁻⁶ cm/s
melting point: 275 to 276 °C

Cc1cc(-c2cc(=O)c3ccccc3o2)cc(C)c1O [Example 7, 2-(4-hydroxy-3,5-dimethylphenyl)chromen-4-one]
ApoA-I Promoter Induction (human ApoA-I promoter): increased
Papp (Caco-2 permeability; Caco-2): 0.695 ×10⁻⁶ cm/s
melting point: 255 to 256 °C

O=c1cc(-c2ccc(O)cc2)oc2cccnc12 [Example 35, 2-(4-hydroxy-phenyl)-pyrano[3,2-b]pyridin-4-one]
ApoA-I Promoter Induction (human ApoA-I promoter): increase
Papp (Caco-2 permeability; Caco-2): 1.98 ×10⁻⁶ cm/s

O=c1cc(-c2ccc(O)cc2)oc2cnccc12 [Example 36, 2-(4-Hydroxyphenyl)pyrano[2,3-c]pyridin-4-one]
change in vivo at 10 mg/kg (hApoA-I transgenic mice; [2]): 17%
ApoA-I Promoter Induction (human ApoA-I promoter): increased
melting point: 294 to 296 °C

Cc1cc(-c2cc(=O)c3cccnc3o2)ccc1O [Example 38, 2-(4-hydroxy-3-methylphenyl)-4H-pyrano[2,3-b]pyridine-4-one]
ApoA-I Promoter Induction (human ApoA-I promoter): increased
Papp (Caco-2 permeability; Caco-2): 0.596 ×10⁻⁶ cm/s
melting point: 300 to 302 °C

O=c1cc(-c2ccc(O)cn2)oc2ccccc12 [Example 46, 2-(5-hydroxy-pyridin-2-yl)-chromen-4-one]
change in vivo at 10 mg/kg (hApoA-I transgenic mice; [3]): 5.62%
ApoA-I Promoter Induction (human ApoA-I promoter): increased
Papp (Caco-2 permeability; Caco-2): 1.23 ×10⁻⁶ cm/s

O=c1cc(-c2ccncc2)oc2ccccc12 [Example 47, 2-pyridin-4-yl-chromen-4-one]
change in vivo at 10 mg/kg (hApoA-I transgenic mice; [3]): 22.7%
ApoA-I Promoter Induction (human ApoA-I promoter): increased
Papp (Caco-2 permeability; Caco-2): 6.48 ×10⁻⁶ cm/s

O=c1cc(-c2ccc(O)nc2)oc2ccccc12 [Example 48, 2-(6-Hydroxypyridin-3-yl)-chromen-4-one]
change in vivo at 10 mg/kg (hApoA-I transgenic mice; [2]): 4.94%
ApoA-I Promoter Induction (human ApoA-I promoter): no increase
melting point: 296 to 297 °C

O=c1cc(-c2ccc(O)cc2)[nH]c2ccccc12 [Example 51, 2-(4-Hydroxy-phenyl)-1H-quinolin-4-one]
change in vivo at 10 mg/kg (hApoA-I transgenic mice; [3]): 32.8%
ApoA-I Promoter Induction (human ApoA-I promoter): no increase

CC(=O)Oc1ccc(C2=CC(C)(C)c3ccccc3O2)cc1 [Example 69, 4-(4,4-Dimethyl-4H-chromen-2-yl)phenyl acetate]
ApoA-I Promoter Induction (human ApoA-I promoter): increased
melting point: 84 to 86 °C

Oc1ccc(C2=COc3ccccc3O2)cc1 [Example 70, 4-(Benzo[b][1,4]dioxin-2-yl)phenol]
ApoA-I Promoter Induction (human ApoA-I promoter): increased
melting point: 137 to 140 °C

CC(=O)Oc1ccc(-c2cc(=O)c3ccccc3o2)cc1 [Example 72, 4-(4-oxo-4H-chromen-2-yl)phenyl acetate]
ApoA-I Promoter Induction (human ApoA-I promoter): increased
Papp (Caco-2 permeability; Caco-2): 2.65 ×10⁻⁶ cm/s

CC(=O)Oc1ccc(-c2cc(=O)c3cccnc3o2)cc1 [Example 75, 4-(4-Oxo-4H-pyrano[2,3-b]pyridine-2-yl)phenyl acetate]
ApoA-I Promoter Induction (human ApoA-I promoter): increased
melting point: 167 to 169 °C

CC(=O)Oc1ccc(C2=COc3ccccc3O2)cc1 [Example 77, 4-(Benzo[b][1,4]dioxin-2-yl)phenyl acetate]
ApoA-I Promoter Induction (human ApoA-I promoter): increased
melting point: 123 to 125 °C

O=c1cc(-c2ccc([N+](=O)[O-])cc2)oc2ncccc12 [Example 80, 2-(4-Nitrophenyl)-4H-pyrano[2,3-b]pyridine-4-one]
ApoA-I Promoter Induction (human ApoA-I promoter): no increase
melting point: 261 to 263 °C

O=c1c(-c2ccc(O)cc2)coc2ccccc12 [Example 84, 3-(4-Hydroxyphenyl)-4H-chromen-4-one]
ApoA-I Promoter Induction (human ApoA-I promoter): increased
melting point: 237 to 238 °C

O=c1c(-c2ccc(O)cc2)coc2ncccc12 [Example 85, 3-(4-Hydroxyphenyl)-4H-pyrano[2,3-b]pyridine-4-one]
ApoA-I Promoter Induction (human ApoA-I promoter): increased
melting point: 262 to 264 °C

CC(C)OC(=O)C(C)(C)Oc1ccc(C(=O)c2ccc(Cl)cc2)cc1 [fenofibrate, reference compound]
liver weight gain normalized to body weight, compared to vehicle (hApoA-I transgenic mice; Experiment A, 100 mg/kg BID, day 15, male mice): significant increase
change in vivo at 30 mg/kg (hApoA-I transgenic mice; [2]): 68.9%
change in vivo at 30 mg/kg (hApoA-I transgenic mice; Table 6 second group, Control 1 3.42): 127%
change in vivo at 30 mg/kg (hApoA-I transgenic mice; Table 6 third group, Control 3 (6.32)): 74.4%
